What was measured:
pJNK in 3T3 WT cells = assay: In-cell western (ICW) pJNK inhibition in 3T3 WT; format: cell-based
Description: (§1) HEK293, Beas2B and 3T3 cells were plated 24 hours before procedure on 384 well clear bottom black flat plates (Corning) pre-coated with Fibronectin (Sigma) diluted in PBS to a concentration of 5 μg/ml 45 minutes prior to cells introduction. Cells were plated using Multidrop™ Combi reagent dispenser (Thermo Fisher Scientific). Compound, reagents and antibody dispensing as well as washes were performed with a CyBio liquid handler (Analytik). Cells were pre-incubated with a small molecule or up to 1% DMSO for 2 h before fixation. HEK293, 3T3 or Beas2B cells were treated with 0.6M/0.2M/0.2M D-Sorbitol/PBS (Sigma) for 20/40/40 min. respectively, before fixation. Media was removed and wells were immediately fixed with 150 μl per well of 3.7% formaldehyde/PBS fixing solution for 20 min. Formaldehyde was then aspired and cells were permeabilized with 150 μl of 0.5% Triton x-100/PBS solution for 10 min. After aspiration cells were washed with ice-cold methanol and stored at −20° C., for 10 min. Methanol was aspired and cells were blocked with 150 μl blocking buffer (LICOR) for 90 min. Primary antibody Phospho-SAPK/JNK T183/Y185 (CST; 9251S) was diluted 1:1000 in blocking buffer and was applied 50 μl per well, except control wells to which only blocking buffer was applied, O.N. (16 h) at 4° C. with mild shaking. Primary antibody was aspired, wells were washed with 150 μl 0.1% Tween20/PBS (Sigma) washing solution three times for 7 min. IRDye® 800CW Goat anti-Rabbit IgG Secondary antibody (LICOR) was then diluted 1:1200 in blocking buffer with 50 μl applied per well on control wells only (no CellTag control), then CellTag700 (1:2000) was added to the solution and 50 μl were added to all experiment wells, for 1 h at room temperature. Wells were aspired and washed again with 150 μl 0.1% Tween20/PBS (Sigma) washing solution three times for 7 min. plate was dried and scanned with Odyssey CLx imaging system at 700 nm and 800 nm (Licor). Wells signals were analyzed with Odyssey software. The signal was normalized by the CellTag700 signal.
(§2) To rapidly assess the cellular activity (EC50) with full dose response curves of the MKK7 covalent inhibitors, according to some embodiments of the present invention, an in-cell western assay was adapted to a 384 well plate format over traditional western blot, and monitored phospho-JNK (pJNK) levels in response to osmotic shock. We first characterized the dynamics of pJNK in response to sorbitol. Sufficient dynamic range for pJNK is achieved at 20 minutes in HEK293 cells and at 40 minutes in 3T3 and Beas2B cells. The compound's activity was assessed by pre-treating cells with either compound or DMSO for 2 hours, followed by Sorbitol stimulation. The response of pJNK, and its substrates, pc-Jun and pATF2, was measured, as well as pP38, which is a substrate of MKK4 but not MKK7, and pERK in HEK293 cells, and the results are presented in Table 5 below.
Wildtype 3T3 cells, 3T3 MKK7 double knock-out (MKK7^−/−) cells and MKK4/7 double knockouts (MKK4/7^−/−) were used to validate on target activity of the MKK7 covalent inhibitors presented herein.

[1] = Metabolic stability in mouse liver microsomes; format: in vitro ADME
Source text: (§3) A reference compound, REF1250, was used in this study: […]

[2] = Metabolic stability in rat liver microsomes; format: in vitro ADME
Source text: as §3

[3] = Metabolic stability in dog liver microsomes; format: in vitro ADME
Source text: as §3

[4] = Metabolic stability in monkey liver microsomes; format: in vitro ADME
Source text: as §3

[5] = Metabolic stability in human liver microsomes; format: in vitro ADME
Source text: as §3

primary mouse B-cells = assay: Primary B-cell activation (CD86+ FACS) in response to LPS; format: cell-based; conditions: for IC50: full dose response
Source text: Compounds Block Activation of Primary Mouse B-Cells:
JNK is known to mediate activation of B-cells in response to lypopolysacharide (LPS) through the TLR4 signaling pathway as well as in response to B-cell receptor activation (stimulated e.g. with an anti-IgM antibody). Primary B-cells were isolated from the spleen of mice and assessed for their B-cell activation, via FACS analysis of CD86+ expression, in response to LPS in the presence or absence of the covalent MKK7 enzyme inhibitors presented herein, as well as a positive control JNK inhibitor, JNK-IN-8.
At 10 μM and 2 hours pre-incubation before stimulation, GO80 was able to inhibit 60% of the CD86+ response.

JNK activation = assay: KTR reporter live cell imaging of JNK activation; format: cell-based; conditions: Homo sapiens; HEK293 cells; read-out: EC50 of test and control compounds
Source text: As an orthogonal assay for the ICW we used a KTR reporter cell line for JNK activation via live cell imaging.

pJNK in HEK293 cells = assay: In-cell western (ICW) pJNK inhibition in HEK293; format: cell-based; conditions: Homo sapiens, HEK293, HEK293, ICW, 2 h pre-incubation, sorbitol stimulation
Description: as §1, §2

[6] = target: T1, MKK7 in MDA-MB-231 lysate (Homo sapiens, UniProt O14733); assay: Proteomic selectivity labeling in human cell lysate (MDA-MB-231); format: binding
T1 construct: endogenous in cells; host or cells: MDA-MB-231
T1 sequence (O14733 1-419): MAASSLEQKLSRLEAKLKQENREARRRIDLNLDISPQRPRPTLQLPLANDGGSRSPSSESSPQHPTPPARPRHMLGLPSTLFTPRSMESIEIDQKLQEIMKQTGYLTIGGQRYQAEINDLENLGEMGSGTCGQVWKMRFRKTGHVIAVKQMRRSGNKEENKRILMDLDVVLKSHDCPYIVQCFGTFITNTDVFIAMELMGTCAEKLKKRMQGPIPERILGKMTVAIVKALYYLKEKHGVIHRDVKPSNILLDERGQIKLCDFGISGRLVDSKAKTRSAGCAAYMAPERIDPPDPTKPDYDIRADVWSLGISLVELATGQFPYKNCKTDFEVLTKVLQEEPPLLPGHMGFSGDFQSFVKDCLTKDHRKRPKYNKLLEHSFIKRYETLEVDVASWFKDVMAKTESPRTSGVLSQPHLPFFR

With `C=CC(=O)Nc1cc(C(=O)NC)cc(-c2n[nH]c3ccccc23)c1` [PCM487] the EC50 (pJNK in 3T3 WT cells; 3T3 WT, ICW, 2 h pre-incubation, sorbitol stimulation, listed as PCM87) was 4.06 µM, the “% remaining @ 40 min” value [1] was 3% and the Halflife [1] was 8 min. For the same compound, the “% remaining @ 40 min” value [2] was 72%, the Halflife [2] was greater than 40 min and the “% remaining @ 40 min” value [3] was 71%. For the same compound, the Halflife [3] was greater than 40 min, the “% remaining @ 40 min” value [4] was 41% and the Halflife [4] was 33 min. The “% remaining @ 40 min” value [5] was 38%, the Halflife [5] was 27 min and the “inhibition of the CD86+ response” value (primary mouse B-cells; 10 μM, 2 hours pre-incubation) was roughly 90%. The IC50 (primary mouse B-cells) was 4.9 µM.
Compound `CCC(=O)Nc1cccc(-c2[nH]nc3ccccc23)c1` [PCM520] has an EC50 (JNK activation) greater than 10 µM.
With `C=CC(=O)Nc1cccc(-c2nn(C)c3ccccc23)c1` [PCM521] the EC50 (JNK activation) was greater than 10 µM.
For `C=CC(=O)N[C@@H]1CCCN(c2[nH]nc3ccccc23)C1` [PCM532], the EC50 (pJNK in HEK293 cells) was greater than 10 µM and the “activity in ICW in 3T3 cells” value (pJNK in 3T3 WT cells; 3T3 cells) was “inactive”.
For `C#CCNC(=O)c1cc(NC(=O)C=C)cc(-c2n[nH]c3ccccc23)c1` [PCM548], the proteins labeled ([6]; at 2 μM) was “the only target”, the proteins labeled ([6]; at 5 μM) was “MKK7 seems to be the dominant target” and the proteins labeled ([6]; at 10 μM) was “labels many proteins”. The inhibition at 10 µM (primary mouse B-cells; Mus musculus, B-cell, 10 μM, 2 hours pre-incubation) was roughly 90% and the IC50 (primary mouse B-cells; Mus musculus, B-cell) was 5.3 µM.

Reference: patent US20210238173A1, “MITOGEN-ACTIVATED PROTEIN KINASE KINASE 7 INHIBITORS” (Yeda Research and Development Co. Ltd., priority 2018, published 2021)
